Test results published in BindingDB's records for doi:10.1016/j.bmcl.2011.02.072 (Bharati Vidyapeeth Deemed University, 2011).

Molecular target: T1, Amine oxidase [flavin-containing] A (Homo sapiens, UniProt P21397)
T1 sequence (P21397 whole entry): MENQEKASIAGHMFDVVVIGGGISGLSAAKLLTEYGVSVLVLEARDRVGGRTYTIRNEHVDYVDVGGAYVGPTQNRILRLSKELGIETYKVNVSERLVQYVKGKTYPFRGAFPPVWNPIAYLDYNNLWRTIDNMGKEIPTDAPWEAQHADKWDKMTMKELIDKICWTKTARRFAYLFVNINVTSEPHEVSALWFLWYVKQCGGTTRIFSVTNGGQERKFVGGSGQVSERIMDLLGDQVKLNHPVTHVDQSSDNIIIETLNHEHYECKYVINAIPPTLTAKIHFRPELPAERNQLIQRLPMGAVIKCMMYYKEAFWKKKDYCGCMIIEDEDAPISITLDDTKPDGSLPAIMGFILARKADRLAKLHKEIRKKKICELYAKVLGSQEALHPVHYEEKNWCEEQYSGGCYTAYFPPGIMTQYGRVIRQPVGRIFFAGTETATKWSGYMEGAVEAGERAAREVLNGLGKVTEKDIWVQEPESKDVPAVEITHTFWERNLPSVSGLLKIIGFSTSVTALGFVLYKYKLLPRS
Experiment: […]

Row | SMILES | Ki [nM]
1 | Cn1cccc1C(=O)[C@H](c1ccccc1)N1CCCC1 [1-(1-Methyl-1H-pyrrol-2-yl)-2-phenyl-2-pyrrolidin-1-yl-ethanone (+)-S] | 9.51
2 | Cn1cccc1C(=O)[C@@H](c1ccccc1)N1CCCC1 [1-(1-Methyl-1H-pyrrol-2-yl)-2-phenyl-2-pyrrolidin-1-yl-ethanone (-)-R] | 3.5
